# Results from patent US6737383B1, “Herbicidal oxadiazolidines” (priority 1999, dated 2004).
# Key:
# [1] = tested on: bedstraw; assay: Test B pre/postemergence bedstraw; format: in vivo, Galium aparine
# Procedure, shortened: (§1)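 Herbicidal effect was estimated by eye on a ten-point control scale after plants spent twelve to sixteen days in a greenhouse following soil or foliar treatment. Foliar sprays targeted plants at one to four leaves; all doses were formulated in a non-phytotoxic solvent with surfactant.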
# [2] = tested on: surinam grass; assay: Test B pre/postemergence surinam grass; format: in vivo, Brachiaria decumbens
# Procedure, shortened: as §1
# [3] = tested on: cocklebur; assay: Test B pre/postemergence cocklebur; format: in vivo, Xanthium strumarium
# Procedure, shortened: as §1
# [4] = tested on: corn; assay: Test B pre/postemergence corn; format: in vivo, Zea mays
# Procedure, shortened: as §1
# [5] = tested on: crabgrass; assay: Test B pre/postemergence crabgrass; format: in vivo, Digitaria sanguinalis
# Procedure, shortened: as §1
# [6] = tested on: morningglory; assay: Test B pre/postemergence morningglory; format: in vivo, Ipomoea hederacea
# Procedure, shortened: as §1
# [7] = tested on: pigweed; assay: Test B pre/postemergence pigweed; format: in vivo, Amaranthus retroflexus; settings: for Redroot pigweed plant response rating: Postemergence; for Plant response rating, Redroot pigweed: Preemergence
# Procedure, shortened: as §1
# [8] = tested on: rape; assay: Test B pre/postemergence rape; format: in vivo, Brassica napus
# Procedure, shortened: as §1
# [9] = tested on: soybean; assay: Test B pre/postemergence soybean; format: in vivo, Glycine max
# Procedure, shortened: as §1
# [10] = tested on: sugar beet; assay: Test B pre/postemergence sugar beet; format: in vivo, Beta vulgaris
# Procedure, shortened: as §1
# [11] = tested on: velvetleaf; assay: Test B pre/postemergence velvetleaf; format: in vivo, Abutilon theophrasti
# Procedure, shortened: as §1
# [12] = tested on: wild oat; assay: Test B pre/postemergence wild oat; format: in vivo, Avena fatua
# Procedure, shortened: as §1
# [13] = tested on: rice; assay: Test B flood test rice; format: in vivo, Oryza sativa
# Procedure, shortened: (§2)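 Read-out is a visual response score from 0 (no effect) to 10 (complete control), assigned by comparison with untreated controls. Treatment was applied at the 2-leaf stage, and plants stayed in the greenhouse for twelve to sixteen days before scoring.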
# [14] = tested on: smallflower flatsedge; assay: Test B flood test smallflower flatsedge; format: in vivo, Cyperus difformis
# Procedure, shortened: as §2
# [15] = tested on: duck salad; assay: Test B flood test duck salad; format: in vivo, Heteranthera limosa
# Procedure, shortened: as §2
# [16] = tested on: bamyardgrass; assay: Test B flood test barnyardgrass; format: in vivo, Echinochloa crus-galli
# Procedure, shortened: as §2
# [17] = Postemergence, Rate 62 g/ha, scale 0 to 10, 0 is no effect, 10 is complete control
# [18] = Postemergence, Rate 250 g/ha, scale 0 to 10, 0 no effect, 10 complete control
# [19] = Preemergence, Rate 62 g/ha, scale 0 to 10, 0 is no effect, 10 is complete control
# [20] = Preemergence, Rate 125 g/ha, scale 0 to 10 (0 no effect, 10 complete control)
# [21] = Preemergence, Rate 250 g/ha, scale of 0 to 10 where 0 is no effect and 10 is complete control
# [22] = Preemergence, Rate 500 g/ha, scale 0 (no effect) to 10 (complete control)
# [23] = Rate 125 g/ha, Postemergence, scale 0 to 10, 0 no effect, 10 complete control
# [24] = Rate 500 g/ha, Postemergence, 0 to 10 scale (0 no effect, 10 complete control)
# [25] = Rate 62 g/ha, scale 0 to 10, 0 is no effect, 10 is complete control
# [26] = Rate 125 g/ha, Postemergence section (flood test species), scale 0 to 10, 0 no effect, 10 complete control
# [27] = Rate 500 g/ha, Postemergence section of Table B, 0 to 10 scale (0 no effect, 10 complete control)
# [28] = flood test, listed under Postemergence, Rate 250 g/ha, scale 0 to 10, 0 no effect, 10 complete control
smiles,measurement,setting,value
CC(C)N(C(=O)n1oc(=O)n(-c2c(Cl)cccc2Cl)c1=O)c1ccc(F)cc1 [Compound 19],Bedstraw plant response rating,[1]; [17],2
same,Bedstraw plant response rating,[1]; [18],7
same,"Plant response rating, Bedstraw",[1]; [19],0
same,"Plant response rating, Bedstraw",[1]; [20],0
same,"Plant response rating, Bedstraw",[1]; [21],0
same,Bedstraw plant response rating,[1]; [22],0
same,Bedstraw plant response rating,[1]; [23],6
same,Bedstraw plant response rating,[1]; [24],8
same,B. signalgrass plant response rating,[2]; [17],0
same,B. signalgrass plant response rating,[2]; [18],0
same,"Plant response rating, B. signalgrass",[2]; [19],0
same,"Plant response rating, B. signalgrass",[2]; [20],2
same,"Plant response rating, B. signalgrass",[2]; [21],2
same,B. signalgrass plant response rating,[2]; [22],2
same,B. signalgrass plant response rating,[2]; [23],0
same,B. signalgrass plant response rating,[2]; [24],0
same,Cocklebur plant response rating,[3]; [17],0
same,Cocklebur plant response rating,[3]; [18],0
same,"Plant response rating, Cocklebur",[3]; [19],0
same,"Plant response rating, Cocklebur",[3]; [21],0
same,Cocklebur plant response rating,[3]; [22],0
same,Cocklebur plant response rating,[3]; [23],0
same,Cocklebur plant response rating,[3]; [24],0
same,Corn plant response rating,[4]; [17],0
same,Corn plant response rating,[4]; [18],0
same,"Plant response rating, Corn",[4]; [19],0
same,"Plant response rating, Corn",[4]; [20],0
same,"Plant response rating, Corn",[4]; [21],0
same,Corn plant response rating,[4]; [22],0
same,Corn plant response rating,[4]; [23],0
same,Corn plant response rating,[4]; [24],0
same,Crabgrass plant response rating,[5]; [17],0
same,Crabgrass plant response rating,[5]; [18],0
same,"Plant response rating, Crabgrass",[5]; [19],3
same,"Plant response rating, Crabgrass",[5]; [20],5
same,"Plant response rating, Crabgrass",[5]; [21],7
same,Crabgrass plant response rating,[5]; [22],10
same,Crabgrass plant response rating,[5]; [23],0
same,Morningglory plant response rating,[6]; [17],0
same,Morningglory plant response rating,[6]; [18],0
same,"Plant response rating, Morningglory",[6]; [19],0
same,"Plant response rating, Morningglory",[6]; [20],0
same,"Plant response rating, Morningglory",[6]; [21],0
same,Morningglory plant response rating,[6]; [22],0
same,Morningglory plant response rating,[6]; [23],0
same,Morningglory plant response rating,[6]; [24],2
same,Redroot pigweed plant response rating,[7]; [25],0
same,Redroot pigweed plant response rating,"[7]; Rate 250 g/ha, scale 0 to 10, 0 no effect, 10 complete control",2
same,"Plant response rating, Redroot pigweed",[7]; [25],0
same,"Plant response rating, Redroot pigweed","[7]; Rate 125 g/ha, scale 0 to 10 (0 no effect, 10 complete control)",0
same,"Plant response rating, Redroot pigweed","[7]; Rate 250 g/ha, scale of 0 to 10 where 0 is no effect and 10 is complete control",2
same,Redroot pigweed plant response rating,"[7]; Rate 125 g/ha, scale 0 to 10, 0 no effect, 10 complete control",0
same,Redroot pigweed plant response rating,"[7]; Rate 500 g/ha, 0 to 10 scale (0 no effect, 10 complete control)",5
same,Rape plant response rating,[8]; [17],0
same,Rape plant response rating,[8]; [18],0
same,"Plant response rating, Rape",[8]; [19],0
same,"Plant response rating, Rape",[8]; [20],0
same,"Plant response rating, Rape",[8]; [21],0
same,Rape plant response rating,[8]; [22],3
same,Rape plant response rating,[8]; [23],0
same,Rape plant response rating,[8]; [24],0
same,Soybean plant response rating,[9]; [17],2
same,Soybean plant response rating,[9]; [18],3
same,"Plant response rating, Soybean",[9]; [19],0
same,"Plant response rating, Soybean",[9]; [20],0
same,"Plant response rating, Soybean",[9]; [21],0
same,Soybean plant response rating,[9]; [22],0
same,Soybean plant response rating,[9]; [23],3
same,Sugarbeets plant response rating,[10]; [17],0
same,Sugarbeets plant response rating,[10]; [18],0
same,"Plant response rating, Sugarbeets",[10]; [19],0
same,"Plant response rating, Sugarbeets",[10]; [20],0
same,"Plant response rating, Sugarbeets",[10]; [21],1
same,Sugarbeets plant response rating,[10]; [22],2
same,Sugarbeets plant response rating,[10]; [23],0
same,Velvetleaf plant response rating,[11]; [17],0
same,Velvetleaf plant response rating,[11]; [18],0
same,"Plant response rating, Velvetleaf",[11]; [19],0
same,"Plant response rating, Velvetleaf",[11]; [20],0
same,"Plant response rating, Velvetleaf",[11]; [21],0
same,Velvetleaf plant response rating,[11]; [22],0
same,Velvetleaf plant response rating,[11]; [23],0
same,Wild oats plant response rating,[12]; [17],0
same,Wild oats plant response rating,[12]; [18],0
same,"Plant response rating, Wild oats",[12]; [20],0
same,"Plant response rating, Wild oats",[12]; [21],0
same,Wild oats plant response rating,[12]; [22],0
same,Wild oats plant response rating,[12]; [23],0
same,Rice plant response rating,[13]; [17],0
same,Rice plant response rating,[13]; [26],0
same,Rice plant response rating,[13]; [27],0
same,Rice plant response rating,[13]; [28],0
same,S. Flatsedge plant response rating,[14]; [17],0
same,S. Flatsedge plant response rating,[14]; [26],0
same,S. Flatsedge plant response rating,[14]; [28],0
same,Ducksalad plant response rating,[15]; [17],0
same,Ducksalad plant response rating,[15]; [26],0
same,Ducksalad plant response rating,[15]; [27],0
same,Ducksalad plant response rating,[15]; [28],0
same,Barnyardgrass plant response rating,[16]; [17],0
same,Barnyardgrass plant response rating,[16]; [26],0
same,Barnyardgrass plant response rating,[16]; [27],0
same,Barnyardgrass plant response rating,[16]; [28],0
